Laboratory results: patent US4410629A, “ML-236B Derivatives and their preparation” (Sankyo Company Limited, priority 1980, dated 1983)
Counter-ions that a name gives are not always drawn.

Assays:
[1] = test system: cholesterol biosynthesis; experiment: Inhibition of cholesterol biosynthesis (method of J. Biol. Chem. 234, 2835 (1959)); type: biochemical
[2] = test system: 3-hydroxy-3-methylglutaryl-coenzyme A reductase; details: competing with the rate-limiting enzyme HMG-CoA reductase; J. Antibiotics 29, 1346 (1976); cited from earlier work
[3] = test system: serum cholesterol levels; details: animals; J. Antibiotics 29, 1346 (1976); cited from earlier work

| Structure (SMILES) | concentration required to inhibit cholesterol biosynthesis by 50% [1] | inhibition of the biosynthesis of cholesterol by enzymes or cultured cells [2] | serum cholesterol levels [3] |
| --- | --- | --- | --- |
| CC[C@H](C)C(=O)O[C@H]1CC=CC2=C[C@@H](O)[C@H](C)[C@H](CC[C@@H]3C[C@@H](O)CC(=O)O3)[C@H]21 [IsoM-4' lactone] | 0.013 µg/mL | – | – |
| CC[C@H](C)C(=O)O[C@H]1CC=CC2=C[C@@H](O)[C@H](C)[C@H](CC[C@@H](O)C[C@@H](O)CC(=O)OC)[C@H]21 [IsoM-4' methyl ester] | 0.007 µg/mL | – | – |
| CC[C@H](C)C(=O)O[C@H]1C[C@H](O)C=C2C=C[C@H](C)[C@H](CC[C@@H](O)C[C@@H](O)CC(=O)OC)[C@H]21 [M-4 methyl ester] | 0.001 µg/mL | – | – |
| CC[C@H](C)C(=O)O[C@H]1C[C@H](O)C=C2C=C[C@H](C)[C@H](CC[C@@H](O)C[C@@H](O)CC(=O)O)[C@H]21 [M-4 sodium salt] | 0.0008 µg/mL | – | – |
| CC[C@H](C)C(=O)O[C@H]1C[C@@H](O)C=C2C=C[C@H](C)[C@H](CC[C@@H](O)C[C@@H](O)CC(=O)O)[C@H]21 [M-4' sodium salt] | 0.00049 µg/mL | – | – |
| CCC(C)C(=O)OC1CCC=C2C=CC(C)C(CCC3CC(O)CC(=O)O3)C21 (centres unmarked) [ML-236B] | 0.01 µg/mL | inhibit the biosynthesis of cholesterol | significantly reduces serum cholesterol levels of animals |
